Assay results from patent US11253516B2, “N2,N4-diphenylpyrimidine-2,4-diamine derivative, method for preparing same, and pharmaceutical composition containing same as active ingredient for prevention or treatment of cancer” (Korea Research Institute of Chemical Technology, priority 2017, dated 2022).
Like-named read-outs stand apart in the source and are kept apart here.

Tests used:
FLT3(D835Y) = FLT3(D835Y) (Homo sapiens (Human), UniProt P36888, D835Y); experiment: KINOMEscan binding, FLT3(D835Y)
Method: (§1) The inhibitory activity on FLT kinase, such as wild-type FLT1, FLT3, FLT4, and FLT3 mutation forms, FLT3(D835H), FLT3(D835V), FLT3(D835Y), FLT3(ITD), FLT3(ITD,D835V), FLT3(ITD,F691L), FLT3(K663Q), FLT3(N841I), FLT3(R834Q) was measured.
(§2) FLT3 kinase inhibition was carried out by KINOMEscan method (DiscoverX Inc.). KINOMEscan method consists of the following processes. T7 bacteriophage labeled with FLT kinase was cultured by the infection to E. coli derived from BL21. After the infection of E. coli in the condition of 0.4 of MOI (multiplicity of infection), it was cultured for 90 to 150 minutes at 32° C. to lyse E. coli. The cell debris was removed by centrifugation and filtration, and the kinase protein present in the supernatant was secured. Additionally, the kinase protein was labeled with DNA for the qPCR measurement. The magnetic beads labeled with streptavidin were treated with the standard compound labeled with biotin and reacted for 30 minutes. The resulting beads were used as affinity beads for the measurement of a kinase activity. The binding reaction was initiated with mixing a kinase protein, the affinity beads bound with a ligand, and the compound. In this case, the used buffer solution was 20% SeaBlock, 0.17×PBS, 0.05% Tween 20, 6 mM DTT. […] The affinity of the compound to be tested was indirectly measured by Quantifying the eluted kinase by […].

FLT3(N841I) = FLT3(N841I) (Homo sapiens (Human), UniProt P36888, N841I); experiment: KINOMEscan binding, FLT3(N841I)
Method: as §1, §2

[1] = tested on: pERK, pAKT, pS6 (EGFR sub-signal) in Ba/F3 Del19/T790M/C797S cell line; experiment: EGFR sub-signal activity (pERK, pAKT, pS6) alone or in combination with cetuximab; assay type: cell-based; details: for activity in pERK, pAKT, pS6 (EGFR sub-signal) when administered alone: 30, 100, 300, 1000 nM alone; for sub-signal activity when administered in combination with cetuximab: 30, 100, 300, 1000 nM plus 10 μg cetuximab; for sub-signal activity compared with brigatinib in combination with cetuximab: vs brigatinib plus cetuximab
Method: In addition, when administering each of brigatinib, the compounds of Examples 10 and 11 of the present invention in 30, 100, 300, 1000 nM alone or in combination with 10 μg of cetuximab, the sub-signal activity on a/F3 Del19/T790M/C797S cell line was evaluated and the results are shown in FIGS. 5 to 7.

FLT3(ITD) = FLT3(ITD) (Homo sapiens, UniProt P36888, ITD); experiment: KINOMEscan binding, FLT3(ITD)
Method: as §1, §2

FLT3(D835V) = FLT3(D835V) (Homo sapiens (Human), UniProt P36888, D835V); experiment: KINOMEscan binding, FLT3(D835V)
Method: as §1, §2

[2] = tested on: Ba/F3 Del19/T790M/C797S cell line; experiment: Relative cell viability alone or in combination with cetuximab; assay type: cell-based; details: for viability at 0.03 µM: Mus musculus; for cell viability decreased than brigatinib in combination with cetuximab: combination with 10 μg cetuximab vs 30 nM brigatinib plus cetuximab
Text: In order to confirm a cell activity on Ba/F3 Del19/T790M/C797S cell line when administering the compound according to the present invention in combination with a conventional drug, cetuximab to be used in single therapy or combination therapy with anticancer chemotherapy in metastatic colorectal cancer, metastatic squamous epithelium head and neck cancer and the like was used to evaluate the cell activity according to the combination administration.
Specifically, brigatinib was used as a control drug, and each of 30 nM of brigatinib, 30 nM of the compound of Example 10 according to the present invention, and 15 nM of the compound of Example 11 was administered to Ba/F3 Del19/T790M/C797S cell line in combination with 10 μg of cetuximab, which is a monoclonal antibody.

[3] = BaF3, 30 nM Example 10 or 15 nM Example 11 alone vs 10 μg cetuximab alone, read-out: lower cell viability when administered alone than cetuximab
[4] = BaF3, 30 nM Example 10 or 15 nM Example 11 plus 10 μg cetuximab vs alone, read-out: cell viability decreased when administered in combination with cetuximab than when administered alone

SMILES | Kd (FLT3(D835Y)) [nM] | Kd (FLT3(N841I)) [nM] | activity in pERK, pAKT, pS6 (EGFR sub-signal) when administered alone [1] | sub-signal activity when administered in combination with cetuximab [1] | sub-signal activity compared with brigatinib in combination with cetuximab [1] | Kd (FLT3(ITD)) [nM] | Kd (FLT3(D835V)) [nM] | viability at 0.03 µM [2, 3] [%] | viability at 0.03 µM [2, 4] [%] | cell viability decreased than brigatinib in combination with cetuximab [2]
COc1cc(N2CCC(N3CCN(C)CC3)CC2)ccc1Nc1ncc(Cl)c(Nc2ccccc2NS(C)(=O)=O)n1 [Example 10, N-(2-((5-chloro-2-((2-methoxy-4-(4-(4-methylpiperazin-1-yl)piperidin-1-yl)phenyl)amino)pyrimidin-4-yl)amino)phenyl)methanesulfonamide] | 4.2 | 6.5 | concentration-dependent activity | superior activity | superior activity | 18 | 0.29 | ≥ 30 | ≥ 50 | at least 20%
COc1cc(N2CCC(N(C)C)CC2)ccc1Nc1ncc(Cl)c(Nc2ccccc2NS(C)(=O)=O)n1 [Example 11, N-(2-((5-chloro-2-((4-(4-(dimethylamino)piperidin-1-yl)-2-methoxyphenyl)amino)pyrimidin-4-yl)amino)phenyl)methanesulfonamide] | 1.5 | 3.8 | concentration-dependent activity | superior activity | superior activity | 4.2 | 0.082 | ≥ 30 | ≥ 50 | at least 20%
